How the values were obtained:
[1] = target: T1, rat lens aldose reductase (Rattus norvegicus, UniProt P07943); assay: Enzyme assay: inhibition of aldose reductase, monitored spectrophotometrically as decrease in NADPH absorbance at 340 nm; assay type: biochemical; settings: 1x10^-4 M concentration; purified recombinant rat aldose reductase, in vitro; read-out: inhibition rate of aldose reductase
T1 construct: made in house; host or cells: Escherichia coli
Method: The activity of purified recombinant rat aldose reductase (Old SE, Sato S, Kador PF. and Carper DA.: In vitro expression of rat lens aldose reductase in Escherichia coli., Proc. Nat. Acad. Sci. USA, 87:4942-4945, 1990) was assayed by spectrophotometrically monitoring decrease in absorbance of NADPH (reduced nicotinamide adenine dinucleotide phosphate) at 340 nm (Kador PF., Goosey JD., Sharpless NE., Kolish J, and Miller DD.: Stereoscopic inhibition of aldose reductase, European J., Med. Chem. 16: 293-298, 1981).
One enzyme unit was defined as amount of enzyme consuming one micromole of NADPH under the assay conditions.
With reference to 1-N,N-dimethylsulfamoyl-4-(2-pyrimidinyl)piperazine (SRA-1; product of Example 3) and 4-((4-dimethylsulfamoyl)piperazino)-2,6-dimethoxypyrimidine (SRA-2; product of Example 1), their in vitro ability to inhibit rat lens aldose reductase were determined.

Diabetic Rats = assay: Cataract formation in streptozotocin-induced diabetic rats, lens changes evaluated by slit lamp; assay type: in vivo, Sprague Dawley rats; settings: 0.06% drug in rat chow; for cataract formation: Figure 1, result of Test Example 2; for cataract formation / onset and severity of sugar cataract formation / progress of lens changes to the vacuole stage: diabetic rats; for Lens changes were observed at: days after injection of streptozotocin, untreated diabetic lens changes began at 21 days; for onset and severity of sugar cataract formation: compared with control chow; for progress of lens changes to the vacuole stage: in untreated diabetic rats vacuoles clearly visible by 35 days
Method: Diabetes was induced in 40 young (60-80 g) Sprague Dawley rats by tail vein injection of 75 mg/kg streptozotocin in Tris-HCl and divided into 3 groups. After 4 days all rats were tested with glucostrips (tail blood), and those with blood sugar levels less than 250 mg % were reinjected with 70 mg/kg streptozotocin dissolved in Tris-HCl.
Drug administration was carried out by adding 0.06% drug to rat chow. The rat chow with added drug was formed by mixing appropriate amounts of each drug with powdered rat chow and then cold pressing the mixture into different size pellets for identification. The rat chow was commercially prepared by BioServe (Frenchtown, N.J.). Subsequently, each compound was dissolved in 500 ml of Tris buffer and mixed with 5 kg of standard rat chow pellets until all liquid was absorbed into the pellets and the wet pellets were dried for 24 hours at 60°C. Rat chow not containing drug was fed to a control group of rats.
Lens changes were evaluated by portable slit lamp at approximately 3-6 day intervals in the diabetic rats. Lens changes were evaluated on a scale at 0 to 3 as follows: 0 clear lens; 1 vacuoles present; 2 cortical opacities; 3 hypermature cataract. The severity of lens changes within the vacuole and cortical stage was further subjectively defined as follows: 1.2 peripheral equatorial vacuoles; 1.4 obvious formation 50% of the lens; 1.6 obvious vacuole formation 50% of lens; 1.8 total lens covered by vacuoles; 2.2 start of cortical changes with posterior capsule still visible by slit lamp; 2.4 advanced cortical opacities covering most of lens; cortical opacity expanded to whole lens; 2.8 total lens is white in appearance.

SMILES | inhibition at 100 µM [1] | cataract formation (Diabetic Rats) | Lens changes were observed at (Diabetic Rats) | onset and severity of sugar cataract formation (Diabetic Rats) | progress of lens changes to the vacuole stage (Diabetic Rats)
CN(C)S(=O)(=O)N1CCN(c2ncccn2)CC1 [SRA-1, 1-N,N-dimethylsulfamoyl-4-(2-pyrimidinyl)piperazine] | 5% | inhibited | 39 days | delayed | did not progress to the vacuole stage
COc1cc(N2CCN(S(=O)(=O)N(C)C)CC2)nc(OC)n1 [SRA-2, 4-((4-dimethylsulfamoyl)piperazino)-2,6-dimethoxypyrimidine] | 13% | inhibited | 45 days | delayed | did not progress to the vacuole stage

Reference: patent EP0806422A2, “Anti-cataract agent” (Senju Pharmaceutical Co., Ltd., priority 1996, dated 1997)
